# Measured values as given in patent publication US20040102524A1, “Method of treatment” (priority 2001, published 2004).
# System: uric acid levels
# Experiment: Clinical data for reduction of uric acid levels in human volunteers
# Format: in vivo
# Design: Mean uric acid 24 hr. after dose: unit not given here
# Conditions: for mean uric acid blood level reduced by: 24 hours after administration vs baseline; for % at 24 hrs. (mean blood level of uric acid at 24 hours after administration as a percentage of the baseline level) / Mean uric acid 24 hr. after dose: oral tablets; for Mean uric acid 24 hr. after dose: plasma
# Method: Test subjects were orally administered tablets containing N-propanesulfonyl-6-[N-(5-bromo-2-(cyclopropylmethoxy)benzyl)-N-ethylamino]pyridazine-3-carboxamide, or a matching placebo was administered orally as tablets, with 200 mL of distilled water. The subjects were directed to remain semi-recumbent for six hours after dosing. A 4.9 mL sample of blood was taken into a tube containing lithium heparin anticoagulant, and plasma was separated by centrifugation for the clinical chemistry analysis at the pretrial medical examinations, pre-dose, 6 hours and 24 hours after dosing on each trial day. Concentrations of the uric acid were determined by standard analytical techniques.
# The listed percentages represent mean blood level of uric acid at 24 hours after administration of the test substance (active compound or placebo) as a percentage of the baseline uric acid level measured prior to administration. […] In particular at a dose of 400 mg the mean uric acid blood level is reduced by 29%. Doses of 800 mg and 1600 mg likewise reduce blood levels of uric acid by 33% and 42% respectively.
smiles,measurement,setting,value
CCCS(=O)(=O)NC(=O)c1ccc(N(CC)Cc2cc(Br)ccc2OCC2CC2)nn1 [N-propanesulfonyl-6-[N-(5-bromo-2-(cyclopropylmethoxy)benzyl)-N-ethylamino]pyridazine-3-carboxamide],mean uric acid blood level reduced by,dose of 400 mg,29%
same,mean uric acid blood level reduced by,dose of 800 mg,33%
same,mean uric acid blood level reduced by,dose of 1600 mg,42%
same,% at 24 hrs. (mean blood level of uric acid at 24 hours after administration as a percentage of the baseline level),dose 1 mg,98.8%
same,Mean uric acid 24 hr. after dose,"dose 1 mg, n=4",280
same,% at 24 hrs. (mean blood level of uric acid at 24 hours after administration as a percentage of the baseline level),dose 5 mg,90.1%
same,Mean uric acid 24 hr. after dose,"dose 5 mg, n=4",245
same,% at 24 hrs. (mean blood level of uric acid at 24 hours after administration as a percentage of the baseline level),dose 25 mg,93.2%
same,Mean uric acid 24 hr. after dose,"dose 25 mg, n=4",237
same,% at 24 hrs. (mean blood level of uric acid at 24 hours after administration as a percentage of the baseline level),dose 100 mg,90.0%
same,Mean uric acid 24 hr. after dose,"dose 100 mg, n=4",286
same,% at 24 hrs. (mean blood level of uric acid at 24 hours after administration as a percentage of the baseline level),dose 200 mg,85.2%
same,Mean uric acid 24 hr. after dose,"dose 200 mg, n=4",268
same,% at 24 hrs. (mean blood level of uric acid at 24 hours after administration as a percentage of the baseline level),dose 400 mg,70.6%
same,Mean uric acid 24 hr. after dose,"dose 400 mg, n=4",242
same,% at 24 hrs. (mean blood level of uric acid at 24 hours after administration as a percentage of the baseline level),dose 800 mg,66.7%
same,Mean uric acid 24 hr. after dose,"dose 800 mg, n=4",237
same,% at 24 hrs. (mean blood level of uric acid at 24 hours after administration as a percentage of the baseline level),dose 1600 mg,57.6%
same,Mean uric acid 24 hr. after dose,"dose 1600 mg, n=6",168
